Test results: patent publication US8623414B2, “Compositions comprising a lipid and copolymer of styrene and maleic acid” (Malvren Cosmeceutics Limited, priority 2005, dated 2014)

Legend:
[1] = Example 5 Supplemental: turbidity meter (Nephla) of compositions with active agents over time (Table 12a); format: physicochemical; details: SMA 3000P (hydrolysed) 2.5%, lipid 90H 1%, S LPC 0.01%; as to clarity: key: Clear: categorised as being clear if there was no significant visible opacity to the naked eye; Cloudy: categorised as cloudy if there was significant visible disruption to the passage of light
Experimental: The turbidity meter was calibrated prior to use, with two known standards (0 and 40 FNU).
After the final stage of sample preparation (i.e. adjustment of the pH to physiological) samples were course filtered through Whatman 541 filter paper to remove any gross matter which could interfere with turbidity measurement. Immediately after filtration the first turbidity measurement was taken. Mixtures were stored at 4° C. following the initial measurement, and remeasured at later time points.

[2] = Example 7: cosmetic gel preparation of Asc-P, clarity at pH 7; format: physicochemical; details: Solution A (hydrolysed SMA3000P 2.5%, 90H 1.0%, S-LPC 0.01%, Asc-P 0.1%, Phenonip 0.1%) mixed 1:1 with xanthan gum/carbopol gel
Experimental: The emulsion was then homogenised for 10 minutes.
Preservative was then added to the solution and the pH adjusted.
Xanthan gum and carbopol were mixed with water and stirred until a uniform gel was formed. The pH was then adjusted to 7.
Solution A and Solution B were then mixed in equal volumes to produce the final preparation.

[3] = Example 5: compositions of the invention to solubilise exemplary active agents (visual clarity, pH on clearing, clarity at pH 7); details: SMA 3000HNa 2.5%, 90H 1%, S LPC 0.01%, active agent 0.1%
Experimental: A stock emulsion of cosurfactant, membrane forming lipid and active was prepared at double the desired final concentration. Cosurfactant was dissolved in water while heating (approximately 50° C.) and stirring. Lipid was then added, followed by continued stirring and heating until a uniform emulsion is formed. The emulsion was then homogenised for 10 minutes. After re-heating to approximately 50° C. the active component was added slowly under stirring until a uniform emulsion was present. The final emulsion was then homogenised for a further 10 minutes.
Stock solutions were prepared by mixing of the hydrolysed polymer with the appropriate volume of water.
Polymer/lipid mixtures were then prepared by the dropwise addition of the lipid containing emulsion to an equal volume of polymer solution while stirring and heating to approximately 50° C.
The pH of the mixtures was adjusted to determine the critical pH level at which macromolecular assemblies formed, and whether the resulting clear and colourless solution would remain at physiological pH.
Percentage values specified in this experiment refer to the weight of the component in question as a proportion of the total weight of the composition.
Mixtures were visually examined to determine whether the polymer/lipid assemblies had solubilised the active agent in the aqueous medium. The clarity of a mixture was categorised as being clear if there was no significant visible opacity to the naked eye, whereas a mixture was categorised as cloudy if there was significant visible disruption to the passage of light.

Row | Clarity ([1]; active agent 0.1%) | pH on clearing ([1]; active agent 0.1%) | Turbidity at pH 7 (FNU) ([1]; active agent 0.1%) | SMILES | other results
1 | – | – | – | CCCCCCCCCCCCCCCC(=O)OC[C@H](O)[C@H]1OC(=O)C(O)=C1O [Asc-P, L-ascorbyl palmitate] | Appearance of cosmetic preparation [2]: clear and colourless aqueous gel; Clarity at pH 7 [3]: Clear; pH on clearing [3]: 8.87
2 | Clear | 8.88 | 62.0 FNU | COc1ccc(C(=O)CC(=O)c2ccc(C(C)(C)C)cc2)cc1 [Avobenzene] | –
3 | – | – | – | CCCCCCCCCCCCCCCC(=O)OC[C@H](O)[C@H]1OC(=O)C(OC(=O)CCCCCCCCCCCCCCC)=C1O [CP] | Clarity [3]: Clear; Clarity at pH 7 [3]: Clear; pH on clearing [3]: 8.89
4 | Clear | 8.81 | 17.81 FNU | CC(C)CCC[C@@H](C)[C@H]1CC[C@H]2[C@@H]3CC=C4C[C@@H](OS(=O)(=O)O)CC[C@]4(C)[C@H]3CC[C@]12C [Chol Sulphate] | –
5 | – | – | – | CC(C)CCC[C@@H](C)[C@H]1CC[C@H]2[C@@H]3CC=C4C[C@@H](O)CC[C@]4(C)[C@H]3CC[C@]12C [Chol, Cholesterol] | Clarity [3]: Clear; Clarity at pH 7 [3]: Clear; pH on clearing [3]: 8.95
6 | Clear | 8.94 | 63.0 FNU | CCCC(=O)O[C@]1(C(=O)CCl)[C@H](C)C[C@@H]2[C@@H]3CCC4=CC(=O)C=C[C@]4(C)[C@]3(F)C(=O)C[C@@]21C [Clo. But] | –
7 | Clear | 8.85 | 50 FNU | CCC(=O)O[C@]1(C(=O)CCl)[C@@H](C)C[C@H]2[C@@H]3CCC4=CC(=O)C=C[C@]4(C)[C@@]3(F)[C@@H](O)C[C@@]21C [Clo. P, Clobetasol Propionate, reference compound] | –
8 | Clear | 8.78 | 5.91 FNU | Clc1ccccc1C(c1ccccc1)(c1ccccc1)n1ccnc1 [Clot., Clotrimazole, reference compound] | –
9 | – | – | – | CC(=O)OCC(=O)[C@@]1(O)CC[C@H]2[C@@H]3CCC4=CC(=O)CC[C@]4(C)[C@H]3C(=O)C[C@@]21C [Cort. A., Cortisone Acetate, reference compound] | Clarity ([1]; active agent 0.25%): Clear; pH on clearing ([1]; active agent 0.25%): 8.87; Turbidity at pH 7 (FNU) ([1]; active agent 0.25%): 14.28 FNU
10 | – | – | – | CC(=O)OCC(=O)[C@@]1(O)[C@H](C)C[C@H]2[C@@H]3CCC4=CC(=O)C=C[C@]4(C)[C@@]3(F)[C@@H](O)C[C@@]21C [DEX A.A., Dexamethasone Acetate Anhydrous, reference compound] | Clarity ([1]; active agent 0.25%): Clear; pH on clearing ([1]; active agent 0.25%): 8.84; Turbidity at pH 7 (FNU) ([1]; active agent 0.25%): 10.52 FNU
11 | Clear | 8.81 | 24.50 FNU | CCCCC(CC)COC(=O)C=Cc1ccc(OC)cc1 (stereo not drawn) [Eusolex 2292, Octyl methoxycinimate] | –
12 | Clear | 8.96 | 31.00 FNU | COc1ccc(C(=O)c2ccccc2)c(O)c1 [Eusolex 4360, Benzophenone-3] | –
13 | – | – | – | CC(=O)OCC(=O)[C@@]1(O)CC[C@H]2[C@@H]3CCC4=CC(=O)CC[C@]4(C)[C@H]3[C@@H](O)C[C@@]21C [HC A, Hydrocortisone Acetate, reference compound] | Clarity ([1]; active agent 0.25%): Clear; pH on clearing ([1]; active agent 0.25%): 8.92; Turbidity at pH 7 (FNU) ([1]; active agent 0.25%): 39.6 FNU
14 | Clear | 8.86 | 33.1 FNU | CCCC(=O)O[C@]1(C(=O)CO)CC[C@H]2[C@@H]3CCC4=CC(=O)CC[C@]4(C)[C@H]3[C@@H](O)C[C@@]21C [HC But] | –
15 | – | – | – | C[C@]12CCC(=O)C=C1CC[C@@H]1[C@@H]2[C@@H](O)C[C@@]2(C)[C@H]1CC[C@]2(O)C(=O)CO [HC, Hydrocortisone, reference compound] | Clarity ([1]; active agent 0.25%): Clear; pH on clearing ([1]; active agent 0.25%): 8.97; Turbidity at pH 7 (FNU) ([1]; active agent 0.25%): 9.09 FNU

Row | SMILES | Clarity ([1]; active agent 0.1%) | pH on clearing ([1]; active agent 0.1%) | Turbidity at pH 7 (FNU) ([1]; active agent 0.1%) | other results
16 | CC(C)CCC[C@@H](C)[C@H]1CC[C@H]2C3=CC=C4C[C@@H](O)CC[C@]4(C)[C@H]3CC[C@]12C [7-DHC, 7-Dehydrocholesterol] | Clear | 8.91 | 7.28 FNU | –
